Experimental data taken from patent publication US20260232625A1, “NOVEL DECURSIN DERIVATIVE AND USE THEREOF FOR PREVENTING OR TREATING NON-SMALL CELL LUNG CANCER” (JAEIN R&P INC., priority 2023, published 2026).
“Also recorded” adds a separate entry of the source.

Experiments:
A549 = test: MTT cytotoxicity evaluation against A549 cells; format: cell-based, human; conditions: for IC50: Homo sapiens, A549, 48 h, 48 hours
Procedure: (§1) A549 (human lung cancer cells) were obtained from the American Type Culture Collection (ATCC) and used. The cells were cultured in a medium containing 10% FBS, 1% penicillin (10,000 units/mL), and streptomycin (10 mg/mL), or in Dulbecco's Modified Eagle's Medium (DMEM), at 37° C. under 5% CO2 conditions.
To measure cytotoxicity, an MTT assay was used. Specifically, A549 cells cultured according to Experimental Example 1 were seeded into a 96-well plate at a density of 2.5×10^4 cells/mL in 100 μL, and incubated for 24 hours. Thereafter, the cells were treated with either the compounds prepared according to Examples 1 to 27 or, as comparative agents, decursin or docetaxel. The prepared compounds and decursin were each administered to the A549 cell line at concentrations of 0 μM (untreated), 12.5 μM, 25 μM, 50 μM, 100 μM, and 200 μM, while docetaxel was administered at concentrations of 0 nM (untreated), 0.1 nM, 1 nM, 10 nM, 100 nM, and 1,000 nM, followed by incubation for an additional 48 hours. Then, 20 μL of MTT solution was added (Method 1). Alternatively, the compounds prepared according to Examples 28 to 30, the compound of Example 5 as a reference compound or, as comparative agents, decursin or docetaxel, were used. The prepared compounds, the compound of Example 5, and decursin were each administered at concentrations of 0 μM (untreated), 3.125 μM, 6.25 μM, 12.5 μM, 25 μM, and 50 μM, while docetaxel was administered at concentrations of 0 nM (untreated), 0.6 nM, 1.25 nM, 2.5 nM, 5 nM, and 10 nM, and treated in the same manner as described in Method 1 (Method 2). The cells treated with MTT solution were incubated for 2 hours, the medium was removed, and the formazan blue crystals formed by the cells were treated with an MTT lysis buffer, followed by incubation in a cell incubator for 24 hours. The MTT lysis buffer was prepared by mixing N,N-dimethylformamide with water in a 1:1 ratio to give a solution containing 20% SIDS (sodium dodecyl sulfate) at the final concentration. The optical density at 590 nm was measured using a microplate reader (FIGS. 1a to 1d). Based on the measured values, the cytotoxicity (IC50) against A549 was calculated, and the results are disclosed in Table 1 together with the structural formulae.

A549 cells = test: Co-administration with gefitinib, MTT cell viability and synergy score in A549 cells; format: cell-based, human; conditions: for cytotoxicity against A549 on co-administration with gefitinib: gefitinib 1.25-20 μM plus compound 6.25-100 μM, compared with decursin plus gefitinib, FIG. 2
Procedure: as §1
Nevertheless, the compound of Example 5, when used as a single agent, was somewhat limited in its efficacy, and therefore its potential as a co-administration agent with existing non-small cell lung cancer therapeutic agents was examined. To this end, gefitinib (Iressa) was selected, and the compound of Example 5, together with decursin for comparison, was co-administered to A549 cells, and the cytotoxicity thereof was measured. To further evaluate dose dependency, gefitinib was administered at concentrations of 0 μM (untreated), 1.25 μM, 2.5 μM, 5 μM, 10 μM, and 20 μM, in combination with either decursin or the […], each administered at concentrations of 0 μM (untreated), 6.25 μM, 12.5 μM, 25 μM, 50 μM, and 100 μM. The relative cell viability was measured by setting the viability of the untreated group, i.e., cells not treated with either gefitinib or decursin/decursin derivative, to 100%, and the results are shown in FIG. 2. Cell viability was determined using an MTT assay. […] In particular, as the concentration of the decursin derivative increased to 12.5 μM or higher, the difference in cell-killing effect became more pronounced.
Furthermore, the synergy score of the cytotoxicity of the combination of gefitinib with decursin or with the decursin derivative compound of Example 5 against A549 cells was calculated using the Synergyfinder webtool, and the results are shown in FIG. 3. A calculated synergy score of 10 or more was considered to indicate a synergistic effect, a score between −10 and 10 was considered to indicate an additive effect, and a score below −10 was considered to indicate an antagonistic effect.

SMILES | IC50 (A549; Method 1: 12.5-200 μM) [µM] | IC50 (A549; Method 2 (marked *): 3.125-50 μM) [µM] | cell-killing effect against human lung cancer cell line A549 compared to decursin (A549; single agent) | synergy score of cytotoxicity against A549 (A549 cells; 10 μM gefitinib plus 6.25 μM compound, Synergyfinder webtool, score of 10 or more = synergistic) | cytotoxicity against A549 on co-administration with gefitinib (A549 cells) | cytotoxicity against A549 on co-administration with gefitinib (A549 cells; listed as compound of Formula 2)
CC1(C)Oc2cc3oc(=O)ccc3cc2C[C@@H]1OC(=O)/C=C/c1ccoc1 [Example 5, (S,E)-2,2-dimethyl-8-oxo-2,3,4,8-tetrahydropyrano[3,2-g]chromen-3-yl 3-(furan-3-yl)acrylate] | 30.3 | 7.88 | superior cell-killing effect; also recorded: most potent effect | ~15 | superior to that observed with co-administration of decursin and gefitinib | synergistic cell-killing effect
CC1(C)Oc2cc3oc(=O)ccc3cc2C[C@@H]1OC(=O)CCn1ccnc1 [Example 1, (S)-2,2-dimethyl-8-oxo-2,3,4,8-tetrahydropyrano[3,2-g]chromen-3-yl 3-(1H-imidazol-1-yl)propanoate] | > 200 |  |  |  |  | 
